Experimental findings from paper PMC9266917, “New Peptide Functionalized Nanostructured Lipid Carriers with CNS Drugs and Evaluation Anti-proliferative Activity” (International Journal of Molecular Sciences, 2022) are described below.

For data set [1] the following is noted: preliminary solubility studies; drug added with stirring until saturation of the lipid; Compritol 888 ATO (melted, 80 °C), Transcutol HP and Miglyol (room temperature); n = 3.
Experimental: Increasing amounts of TCP were successively added, with stirring, until saturation of the lipid was achieved. The saturation point occurred when the excess of solid TCP persisted for more than 8 h. Each determination was carried out in triplicate (n = 3).
For the next data set, the system named is SH-SY5Y cell line. Briefly: Cell morphology visualization by microscope, SH-SY5Y. The following applies: 24 h incubation, 1 µM. Type of data set: cell-based, human. On the procedure: (§1) After the treatments, cell morphology and growth were assessed by contrast phase microscope Lionheart FX (Biotech, USA) with use of Gen5 software (Biotech, USA) and a Leica DMI 6000B microscope equipped with a Leica DFC350 FX camera and then analyzed with the Leica LAS X imaging software (v3.7.4).

The test system of data set [2] is Caco-2 cell line. Briefly: Cell morphology visualization by microscope, Caco-2. Type of data set: cell-based. The settings on record: Caco-2, 24 h incubation, 10 µM. On the procedure: as §1
Data set [3] concerns Caco-2 cell line. Kind of data set: MTT cell viability assay, Caco-2. The data set is classed as cell-based. The settings on record: Caco-2, 24 h incubation, free peptide or conjugate at 10 µM, n = 3 or 6. On the procedure:
The MTT assay was conducted to determine metabolic activity of cells and assess cellular viability. Cells were maintained in culture incubated with DMEM further supplemented with 10% of heat-inactivated fetal bovine serum (FBS) and 1% penicillin and streptomycin at 37 °C in a controlled atmosphere of 5% CO2 (according to the ATCC recommendations). Before the experiment, SH-SY5Y cells and Caco-2 cell line were seeded in sterile, flat-bottom 96-well plates at the density of 18,000 cells per well and 6000 cells per well, respectively, and incubated for 24 h. […] Then the cells were incubated for 24 h and both negative and positive control were included with incubation with culture media and sterilized water (5:1) and DMSO 10% to promote the cell lyses, respectively. After incubation, all media was aspirated and replaced with 100 μL of MTT solution (at 0.5 mg/mL). Then, cells were incubated for 3 h in the dark. […] The absorbance was measured at 570 nm in a microplate reader (Synergy HT, Biotech Instruments inc., Winoosk, USA and Tecan Infinite M200, Tecan group Ltd., Männedorf, Switzerland). All experiments were performed in triplicates and the relative cell viability (%) was compared to control cells and calculated using the following equation: Cell viability (% of sample)=Abs sample/Abs control×100

Turning to `N[C@@H]1C[C@H]1c1ccccc1` (racemic) [TCP, (±)-trans-2-Phenylcyclopropylamine], in data set [1], the solubility in lipids result is on record as “maximum solubility level in liquid lipid Transcutol HP”.
In the case of “KLALKLALKALKAALKLA-NH2 [MAP, model amphipathic peptide, cell-penetrating peptide]”, the “cell viability and morphology by microscope visualization” value is “decreased substantial cell viability and showed some morphologic change with loss of normal cellular structure and round aspect” with SH-SY5Y cell line; “decrease of cell viability and substantial morphologic changes” with Caco-2 cell line [2]. Also, in the data set with Caco-2 cell line [3], the “decrease of cell viability” value was determined as 20%.
